Values of other authors in patent US20070122363A1, “CORPOREAL DELIVERY OF CAROTENOIDS” (priority 2005, published 2007).

Conditions: 50 mg daily, about 22,000 male physicians, versus placebo

CC1=C(/C=C/C(C)=C/C=C/C(C)=C/C=C/C=C(C)/C=C/C=C(C)/C=C/C2=C(C)CCCC2(C)C)C(C)(C)CCC1 [beta-carotene, beta, beta-carotene]
adverse health effects: no adverse health effects
